Laboratory results as given in patent publication US9782399B2, “Pharmaceutical compositions which inhibit FKBP52-mediated regulation of androgen receptor function and methods of using same” (The United States of America, as represented by the …, priority 2009, dated 2017).

Target: T1, wild type human AR (Homo sapiens, UniProt P10275)
T1 construct: expressed in transfected cells; host or cells: Saccharomyces cerevisiae W303 (PDR5 deleted)
T1 sequence (P10275 1-920): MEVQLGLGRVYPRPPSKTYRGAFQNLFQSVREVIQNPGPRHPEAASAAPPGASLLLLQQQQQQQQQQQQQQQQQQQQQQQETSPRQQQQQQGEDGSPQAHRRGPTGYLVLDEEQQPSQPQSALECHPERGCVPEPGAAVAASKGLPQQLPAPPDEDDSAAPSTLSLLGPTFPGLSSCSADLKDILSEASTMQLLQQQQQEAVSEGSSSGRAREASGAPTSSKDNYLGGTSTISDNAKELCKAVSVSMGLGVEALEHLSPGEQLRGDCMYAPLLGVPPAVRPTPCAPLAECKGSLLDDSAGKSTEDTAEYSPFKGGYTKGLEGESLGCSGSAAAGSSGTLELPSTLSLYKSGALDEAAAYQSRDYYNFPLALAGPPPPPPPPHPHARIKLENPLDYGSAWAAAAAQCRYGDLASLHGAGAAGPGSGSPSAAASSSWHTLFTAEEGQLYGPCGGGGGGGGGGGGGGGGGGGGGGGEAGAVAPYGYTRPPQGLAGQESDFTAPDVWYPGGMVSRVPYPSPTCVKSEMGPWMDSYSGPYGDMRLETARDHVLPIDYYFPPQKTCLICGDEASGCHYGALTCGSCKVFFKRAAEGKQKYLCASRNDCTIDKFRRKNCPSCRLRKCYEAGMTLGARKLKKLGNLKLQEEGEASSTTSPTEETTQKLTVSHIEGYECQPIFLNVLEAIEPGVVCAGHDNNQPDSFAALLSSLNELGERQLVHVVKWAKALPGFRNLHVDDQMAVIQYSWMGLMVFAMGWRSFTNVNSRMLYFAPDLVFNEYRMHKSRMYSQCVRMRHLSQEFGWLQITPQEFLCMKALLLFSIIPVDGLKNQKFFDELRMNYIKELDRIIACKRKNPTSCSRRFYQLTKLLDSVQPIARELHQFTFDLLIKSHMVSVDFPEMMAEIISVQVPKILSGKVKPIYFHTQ
Test: Yeast AR-mediated β-galactosidase reporter assay, control strain (wild type AR alone)
Format: cell-based
Conditions: without FKBP52
From the text: The yeast host strain used to make these four strains, W303, has his3, trp1 and ura3 mutations, so that growth on media lacking tryptophan, histidine and uracil requires the presence of all three plasmids. The URA3-marked steroid receptor-mediated β-galactosidase reporter plasmid (pUCΔss-26X) was the gift of Dr. Brian Freeman, University of Illinois. The pleiotropic drug resistance 5 (PDR5) gene was deleted in this strain, because PDR5 is an ATP-binding cassette transporter that could potentially transport the test compounds out of the cells, thereby hindering their identification. By deleting PDR5, this potential problem is avoided. […]
The strains were cultivated overnight using a shaking incubator in SC-HUW medium (synthetic complete medium lacking histidine, uracil and tryptophan). […] About one hour later, the plate was read in a luminometer. The measured RLU (relative light units) was normalized to the cell density of the cultures, at the time they were added to the plates, to give a measure of RLU/OD unit. […]
The inventors began testing compounds in the assay by starting with a standard concentration of about 50 μM for all compounds tested. […] The plates are incubated for approximately another 1-3 hours, preferable about 1 hour and 30 minutes, and the light emission is measured on a microplate luminometer (Luminoskan Ascent, Thermo Labsystems). […]

Cc1ccc(NC(=O)c2ccccc2C(=O)O)cc1C [Compound 1]
effect on AR function alone: does not affect AR function alone
